Measured values taken from ChEMBL document CHEMBL4477232, “Synthesis and evaluation of novel 1,2,3-triazole-based acetylcholinesterase inhibitors with neuroprotective activity” (Bioorg Med Chem Lett, 2016).
pIC50: −log10 of the molar value. Activity calls are given as the source filed them. The rule behind the calls is not given here.

What was measured:
Acetylcholinesterase = Acetylcholinesterase (Electrophorus electricus, UniProt O42275); assay: Inhibition of electric eel AChE preincubated for 6 mins followed by addition of acetylthiocholine iodide by Ellman's method
[1] = Selectivity ratio of IC50 for equine serum BuChE to IC50 for electric eel AChE
Cholinesterase = Cholinesterase (Equus caballus, UniProt P81908); assay: Inhibition of equine serum BuChE preincubated for 6 mins followed by addition of S-butyrylthiocholine iodide by Ellman's method
SH-SY5Y [2] = assay: Neuroprotective activity against amyloid beta (25 to 35 residues)-induced cell damage in human SH-SY5Y cells assessed as recovery of cell viability at 1 uM preincubated for 2 hrs followed by amyloid beta (25 to 35 residues) addition measured after 24 hrs by MTT assay; format: functional
SH-SY5Y [3] = assay: Neuroprotective activity against amyloid beta (25 to 35 residues)-induced cell damage in human SH-SY5Y cells assessed as cell viability at 1 uM preincubated for 2 hrs followed by amyloid beta (25 to 35 residues) addition measured after 24 hrs by MTT assay (reference value: 62.3 %); format: functional; conditions: for viability at 1 µM: read-out: Activity
HaCaT = assay: Cytotoxicity against human HaCaT assessed as cell viability upto 400 uM after 24 hrs by MTT assay relative to control; format: cell-based
SH-SY5Y [4] = assay: Neuroprotective activity against amyloid beta (25 to 35 residues)-induced cell damage in human SH-SY5Y cells assessed as recovery of cell viability at 10 uM preincubated for 2 hrs followed by amyloid beta (25 to 35 residues) addition measured after 24 hrs by MTT assay; format: functional
NIH3T3 = assay: Cytotoxicity against mouse NIH/3T3 assessed as cell viability upto 400 uM after 24 hrs by MTT assay relative to control; format: cell-based; conditions: nih3t3, 24 h
SH-SY5Y [5] = assay: Neuroprotective activity against amyloid beta (25 to 35 residues)-induced cell damage in human SH-SY5Y cells assessed as cell viability at 10 uM preincubated for 2 hrs followed by amyloid beta (25 to 35 residues) addition measured after 24 hrs by MTT assay (reference value: 62.3 %); format: functional; conditions: for viability at 10 µM: read-out: Activity

Acetylcholinesterase, sequence (O42275 whole entry): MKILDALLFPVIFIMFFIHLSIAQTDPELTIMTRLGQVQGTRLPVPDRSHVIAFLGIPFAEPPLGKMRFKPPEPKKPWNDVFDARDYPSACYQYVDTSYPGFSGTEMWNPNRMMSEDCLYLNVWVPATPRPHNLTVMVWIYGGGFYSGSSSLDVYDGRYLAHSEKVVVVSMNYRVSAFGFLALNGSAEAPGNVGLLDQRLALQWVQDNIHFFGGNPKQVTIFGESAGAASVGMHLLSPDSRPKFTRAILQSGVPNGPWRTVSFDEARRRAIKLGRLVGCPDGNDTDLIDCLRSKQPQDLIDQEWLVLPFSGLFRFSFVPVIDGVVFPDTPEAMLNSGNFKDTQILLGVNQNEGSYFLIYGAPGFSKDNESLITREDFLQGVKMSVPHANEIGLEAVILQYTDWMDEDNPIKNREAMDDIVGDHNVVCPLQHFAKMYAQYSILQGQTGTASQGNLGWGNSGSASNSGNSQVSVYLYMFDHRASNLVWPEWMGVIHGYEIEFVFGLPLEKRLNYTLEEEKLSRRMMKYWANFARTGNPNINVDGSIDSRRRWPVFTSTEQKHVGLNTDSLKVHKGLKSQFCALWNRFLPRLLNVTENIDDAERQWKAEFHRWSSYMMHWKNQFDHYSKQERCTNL
Cholinesterase, sequence (P81908 whole entry, the tested form may be a part): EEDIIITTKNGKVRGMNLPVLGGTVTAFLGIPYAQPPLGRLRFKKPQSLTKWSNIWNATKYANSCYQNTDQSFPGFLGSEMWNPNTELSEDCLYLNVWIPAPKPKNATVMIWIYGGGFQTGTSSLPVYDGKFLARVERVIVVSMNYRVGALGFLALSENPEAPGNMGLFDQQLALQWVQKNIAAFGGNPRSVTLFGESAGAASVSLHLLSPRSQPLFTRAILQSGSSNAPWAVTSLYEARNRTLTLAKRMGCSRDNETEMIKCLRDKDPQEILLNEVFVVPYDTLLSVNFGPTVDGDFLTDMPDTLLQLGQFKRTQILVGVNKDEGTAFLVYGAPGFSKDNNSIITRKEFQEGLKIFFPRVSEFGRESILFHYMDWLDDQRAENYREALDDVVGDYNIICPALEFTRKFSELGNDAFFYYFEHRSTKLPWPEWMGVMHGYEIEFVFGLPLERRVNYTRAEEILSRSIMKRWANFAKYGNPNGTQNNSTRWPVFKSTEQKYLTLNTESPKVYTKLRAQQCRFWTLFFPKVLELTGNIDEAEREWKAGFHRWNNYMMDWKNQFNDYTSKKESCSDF

SMILES | pIC50 (Acetylcholinesterase) | Ratio IC50 [1] | pIC50 (Cholinesterase) | further results
Cc1cc(C)cc(Cn2cc(-c3ccc(C)c(C(=O)NCCN4CCOCC4)c3)nn2)c1 | 4.19 | 0.9 | 4.25 | –
Cc1ccc(-c2cn(Cc3cccc4ccccc34)nn2)cc1C(=O)NCCN1CCOCC1 | 4.34 | 1.58 | 4.14 | –
Cc1ccc(-c2cn(Cc3ccc(C#N)cc3)nn2)cc1C(=O)NCCN1CCOCC1 | 4.92 | 7.6 | 4.03 | Activity (SH-SY5Y [2]): inactive; Activity (SH-SY5Y [3]): inactive; Activity (HaCaT): Non-Toxic; Activity (SH-SY5Y [4]): 16.6%; Activity (NIH3T3): Non-Toxic; viability at 10 µM (SH-SY5Y [5]): 78.9%
COC(=O)c1ccc(Cn2cc(-c3ccc(C)c(C(=O)NCCN4CCOCC4)c3)nn2)cc1 | 4.42 | 1.8 | 4.17 | –
Cc1ccc(-c2cn(Cc3cccc(F)c3)nn2)cc1C(=O)NCCN1CCOCC1 | 4.52 | 1.2 | 4.22 | –
Cc1ccc(-c2cn(Cc3ccccc3C(F)(F)F)nn2)cc1C(=O)NCCN1CCOCC1 | 4.47 | 1.3 | 4.35 | –
Cc1ccc(-c2cn(Cc3ccc(F)cc3Br)nn2)cc1C(=O)NCCN1CCOCC1 | 4.50 | 2.3 | 4.15 | –
Cc1ccc(-c2cn(Cc3ccc(F)cc3)nn2)cc1C(=O)NCCN1CCOCC1 | 4.67 | 2.1 | 4.36 | –
O=C(O[C@@H]1Cc2c(O)cc(O)cc2O[C@@H]1c1cc(O)c(O)c(O)c1)c1cc(O)c(O)c(O)c1 [EPIGALOCATECHIN GALLATE] | – | – | – | Activity (SH-SY5Y [4]): 33.4%; viability at 10 µM (SH-SY5Y [5]): 95.7%
Cc1ccc(-c2cn(Cc3ccc(Br)cc3)nn2)cc1C(=O)NCCN1CCOCC1 | 4.69 | 2.2 | 4.34 | –
Cc1ccc(-c2cn(Cc3ccc(F)c(F)c3)nn2)cc1C(=O)NCCN1CCOCC1 | 4.81 | 6.2 | 4.02 | Activity (SH-SY5Y [2]): 8%; viability at 1 µM (SH-SY5Y [3]): 70.3%; Activity (HaCaT): Non-Toxic; Activity (SH-SY5Y [4]): 27.1%; Activity (NIH3T3): Non-Toxic; viability at 10 µM (SH-SY5Y [5]): 89.4%
C#Cc1ccc(C)c(C(=O)NCCN2CCOCC2)c1 | < 4.00 | – | – | –
Cc1cc(F)ccc1Cn1cc(-c2ccc(C)c(C(=O)NCCN3CCOCC3)c2)nn1 | 4.43 | 1.6 | 4.21 | –
Cc1ccc(-c2cn(Cc3ccc(S(N)(=O)=O)cc3)nn2)cc1C(=O)NCCN1CCOCC1 | 4.52 | 1.5 | 4.34 | –
COc1ccc(Br)c(Cn2cc(-c3ccc(C)c(C(=O)NCCN4CCOCC4)c3)nn2)c1 | 4.39 | 1.2 | 4.29 | –
Cc1ccc(-c2cn(Cc3ccc(OC(F)(F)F)cc3)nn2)cc1C(=O)NCCN1CCOCC1 | 4.52 | 2 | 4.22 | –
Cc1ccc(-c2cn(Cc3cccc(Br)c3)nn2)cc1C(=O)NCCN1CCOCC1 | 4.55 | 2 | 4.39 | –
Cc1ccc(-c2cn(C)nn2)cc1C(=O)NCCN1CCOCC1 | 4.34 | 1.5 | 4.17 | –
Cc1ccc(-c2cn(Cc3ccc(F)cc3Cl)nn2)cc1C(=O)NCCN1CCOCC1 | 4.98 | 6.6 | 4.16 | Activity (SH-SY5Y [4]): inactive; Activity (SH-SY5Y [5]): inactive
COC(=O)/C=C/c1ccc(Cn2cc(-c3ccc(C)c(C(=O)NCCN4CCOCC4)c3)nn2)cc1 | 4.35 | 2 | 4.04 | –
Cc1ccc(-c2cn(Cc3ccc(F)cc3F)nn2)cc1C(=O)NCCN1CCOCC1 | 4.61 | 3.7 | 4.05 | –
Cc1ccc(-c2cn(Cc3ccc([N+](=O)[O-])cc3)nn2)cc1C(=O)NCCN1CCOCC1 | 4.69 | 2.9 | 4.22 | –
Cc1ccc(-c2cn(Cc3ccccc3Br)nn2)cc1C(=O)NCCN1CCOCC1 | 4.45 | 2.2 | 4.10 | –
Cc1ccc(-c2cn(Cc3ccc4ccccc4c3)nn2)cc1C(=O)NCCN1CCOCC1 | 5.14 | 12.6 | 4.04 | Activity (SH-SY5Y [2]): 15.6%; viability at 1 µM (SH-SY5Y [3]): 77.9%; Activity (HaCaT): Non-Toxic; Activity (SH-SY5Y [4]): 34.2%; Activity (NIH3T3): Non-Toxic; viability at 10 µM (SH-SY5Y [5]): 96.5%
Cc1ccc(-c2cn(Cc3cccc(Cl)c3)nn2)cc1C(=O)NCCN1CCOCC1 | 4.49 | 1.1 | 4.44 | –
Cc1ccc(-c2cn(Cc3ccccc3Cl)nn2)cc1C(=O)NCCN1CCOCC1 | 4.50 | 1.1 | 4.46 | –
Cc1ccc(Cn2cc(-c3ccc(C)c(C(=O)NCCN4CCOCC4)c3)nn2)cc1 | 4.22 | 1.4 | 4.08 | –
Cc1ccc(-c2cn(Cc3ccccc3F)nn2)cc1C(=O)NCCN1CCOCC1 | 4.41 | 2 | 4.33 | –
Cc1ccc(-c2cn(Cc3ccc(F)c([N+](=O)[O-])c3)nn2)cc1C(=O)NCCN1CCOCC1 | 4.52 | 1.2 | 4.46 | –
Cc1ccc(-c2cn(Cc3ccc(C(F)(F)F)cc3)nn2)cc1C(=O)NCCN1CCOCC1 | 4.56 | – | – | Activity (SH-SY5Y [2]): inactive; Activity (SH-SY5Y [3]): inactive; Activity (SH-SY5Y [4]): 22.9%; viability at 10 µM (SH-SY5Y [5]): 85.2%
